Data on two molecules can be found in patent US8012994B1 (priority 2006, dated 2011).

Holding throughout (assay type): in vivo, human
Series [1] concerns sensorineural hearing loss caused by hyperbilirubinemia. In words: Treatment for sensorineural hearing loss caused by hyperbilirubinemia. On the procedure: Research was conducted on four patients (age 2 to 5 years) who had hyperbilirubinemia soon after birth. The hearing impairment was diagnosed when the children were examined and treated for hyperkinetic cerebral palsy. The children were not able to walk.
After the treatment, their hearing improved by 10-15 dB.

Series [2] has as its system sensorineural hearing loss caused by birth injury. In words: Treatment for sensorineural hearing loss caused by birth injury. On the procedure: Research was conducted with 4 patients whose hearing loss was caused by birth injury. Two patients were twin boys […] and two patients […].
The twins had sensorineural hearing loss in both ears. […] The course was repeated in 1.5 months, and the third course was conducted in 3 months.
Treatment was then conducted according to the following pattern.
The courses were repeated every three months for three years. They received 8 and 10 courses respectively.

Series [3] deals with hearing loss caused by toxoplasmosis. In words: Treatment for neuropathy of CN VIII: hearing loss caused by toxoplasmosis. As to conditions: patient. On the procedure:
This research involved observation of neuropathy in the vestibulocochlear nerve of 17 patients.
In two patients, the hearing loss was caused by toxoplasmosis. In one patient, inborn toxoplasmosis was diagnosed. The other patient developed toxoplasmosis from an infected cat.
The second course was conducted in three months. After four courses of treatment, their hearing improved by 25 dB.
After 5 courses of treatment, their hearing improved by 30 dB.

The test system of series [4] is sensorineural hearing loss caused by Usher syndrome. In words: Treatment for sensorineural hearing loss caused by Usher syndrome. On the procedure:
A group of 4 children of 5-6 years old with Usher's syndrome were studied. They manifested profound hearing impairment of 65-75 dB alongside progressive loss of vision due to retinitis pigmentosa. These children had been previously refused treatment on the account of their disease being genetic.
In 1.5 months there was an improvement in hearing by 5 dB. […] The third course was conducted in three months according to the same pattern. After that the hearing improved by 10-15 dB.
PIRIBEDIL® is a vasodilative drug used for treating vision and hearing disorders. Applicant observed that the hearing was improved by 5-10 dB. The patients were recommended to have a follow up treatment every 6 months according to the same pattern.

Series [5] relates to neurinomas of cerebellopontine angle. In words: Treatment for neurinomas of cerebellopontine angle. The text has this:
Neurinomas of the cerebropontine angle—7 patients (2 patients and 5 people from 35 to 45 years of age).
In all 7 patients, the tumor was diagnosed late and was of a considerable size. In spite of the fact that all of them had consulted doctors, they were correctly diagnosed only after the appearance of the symptoms of damage to the facial nerve, ataxy, and complete hearing loss. Some of the patients underwent neurosurgery, including partial removal of the tumor followed by chemo- and radio-therapy. The patients manifested paralysis of the facial nerve, optic atrophy, and tinnitus, dizziness and paresis or hemisyndrom of different degrees.
After the operations, some of the patients had severe complications. […] Disorders of differentiation of words, especially in noisy environments. Some patients manifested convulsions and severe headaches. The encephalogram registered readiness for convulsions. Such patients initially underwent anticonvulsant therapy with CARBAMAZEPINE® 100 mg two times a day.
The course of treatment was repeated every 3-6 months. […] The patients started to differentiate shapes of objects, which helped them to orient in the surroundings and to come to the clinic without a guide.

The subject of a further series is meningiomas. As to the kind of experiment: Treatment of patients with meningiomas. The settings on record: 1.25 mg once a day, three courses. The protocol: Applicant observed two patients with meningiomas. Their tumors were of a considerable size. These patients had undergone surgery, which was conducted in two stages, and was followed by chemo- and radiation therapy. These patients were practically blind, and had bilateral optic atrophy, their hearing function was impaired by 30-40 dB, they were not able to differentiate words in noisy environments. They also manifested convulsive attacks up to 15 times a day. They went through the anticonvulsant therapy, after which their convulsions occurred only for 2 times a month. […] In a month and a half, the treatment was conducted according to the following pattern. 1.25 mg once a day for 7 days, followed by a 5 day break. […] This course was repeated in 3 months. The third course was conducted in 6 months. […] These improvements satisfied the patients and no further treatment was conducted.

For another series, the system named is minimal hearing loss. As to the kind of experiment: Treatment for minimal hearing loss. An excerpt: A group of patients consisting of 56 children was selected. 29 children—4 years of age and 27 children—5-6 years of age.
Minimal hearing disorders were discovered when these children were investigated for speech development delay.
The course of treatment was repeated in three months. Depending on the degree of the impairment and its cause, the patients received from 3 to 8 courses of treatment.

For series [6], the system named is sensorineural hearing loss of vascular genesis. As to the kind of experiment: Treatment for sensorineural hearing loss of vascular genesis. The protocol:
A group of 24 patients at the age of 50-65 were treated for sensorineural hearing loss. […] After a 7-10 days break, the course was repeated. […] The hearing in one ear improved by 5-10 dB.
So the second intake of the drug at night was withdrawn. […] After that, they refused to continue the treatment for the lack of desired effect.
Three courses of treatment were conducted. […] Then, the patients terminated the treatment because of its high cost.

Series [7] has as its system blind mute and deaf children. In words: galanthamine hydrobromide injections in blind mute and deaf children. As to conditions: one of 3 patients, 7-9 years old; 0.1 ml of 0.5% solution per year of life, 15-20 injections. The protocol: 25 years ago, applicant conducted a study of a small group of blind mute and deaf children (3 patients) at the age of 7-9 years old. There was an attempt to restore their visual function using galanthamine hydrobromide solution at the dosage of 0.1 ml of 0.5% of galanthamine hydrobromide for each year of life. The course of treatment included 15-20 injections. […] This finding gave an impetus to conduct additional research into the restoration of auditory function using acetylholinesterase inhibitors in conjunction with laser stimulation.

Where [8] appears, read: after three courses, 0.625 mg once a day during 25 days.
The mark [9] stands for this setting: twin boys, three courses, 2.5 mg twice a day for 20 days.
Setting [10] is: 7 patients, courses repeated every 3-6 months.
Setting [11] is: 18 patients, 2.5 mg a day with vasodilating treatment, three courses.

Each structure is given as a SMILES string. Where a name gives a salt, the structure may show the parent alone.

For `COc1cc2c(cc1OC)C(=O)C(CC1CCN(Cc3ccccc3)CC1)C2` (stereo not drawn) [ARICEPT®, donepezil hydrochloride], the concentration entry in [1] (setting [8]) was “concentration improved”. Besides, the hyperkinesias result in series [1] (setting [8]) is recorded as “some decrease of hyperkinesias”. Moreover, the hearing entry is given as “no improvement in hearing” in series [1] (four patients 2-5 years, after three courses, 0.625 mg once a day during 25 days); “improvement of hearing” with meningiomas (2 patients, hearing impaired by 30-40 dB); “slight improvement of hearing” in [6] (6 patients, night intake withdrawn, after the fourth course); “improved hearing in one ear” in [6] (setting [11]). Besides, the hyperkinesia and walking result in [1] (patient with profound hearing loss, after ten courses) was “Hyperkinesia decreased and the patient began to walk”. Besides, in series [1] (patient, threshold over 95 dB before, after ten courses), the hearing threshold came to 90 dB. The “hearing improved by” value in [1] (two children, 10 courses, 0.625 mg twice a day for 25 days, three months break) is given as 10-15 dB; in series [2] (person, sensorineural hearing loss of 65 dB, 2.5 mg once a day for twenty days, 10 courses over three years), 10 dB; in series [3] (0.625 mg once a day during 20 days, after four courses) it was 25 dB; in series [3] (2.5 mg once a day for 20 days, after 5 courses) it was 30 dB; in series [4] (after the third course, 1.25 mg two times a day) it was 10-15 dB; in [4] (two patients, after six months, with PIRIBEDIL 5 mg two times a day), 5-10 dB. Also, the “hearing improved by” value with minimal hearing loss (children with sensorineural hearing loss, 1.25 mg once a day during 20 days, 3 to 8 courses) was 5-10 dB. In addition, the “hearing improved by, in one ear” value is recorded as 20-25 dB in series [2] (each twin, further three courses 2.5 mg twice a day for 25 days, with PERIBEDIL 10 mg twice a day from the 4th course) and 10 dB in series [2] (twin boys of 10 years, three courses, 2.5 mg twice a day for 20 days, hydrochloride). In series [2] (setting [9]), the fatiguability entry is given as “decreased fatiguability”. Moreover, the speech entry was “speech became more understandable” in [2] (setting [9]) and “increased legibility of speech” in the series with meningiomas (2 patients, with anticonvulsant therapy). In [4] (4 children 5-6 years, loss 65-75 dB, 1.25 mg 2 times a day for 20 days, in 1.5 months), the improvement in hearing is listed as 5 dB. Further, the results for the visual function entry in [4] (after the third course) and in [5] (setting [10]) were “improved visual function” and “improvement in their visual function”, respectively. In addition, the tinnitus entry is recorded as “decrease of tinnitus” in [5] (setting [10]) and “decrease of tinnitus” in series [6] (18 of 24 patients 50-65 years, after the first course, 2.5 mg twice a day during 25 days). Moreover, the “effect of further courses” value in series [5] (after 5-6 courses of treatment) is reported as “no further improvement”. In addition, the side effects result in series [5] (dosage increased to 5 mg twice a day, with anticonvulsant therapy) was “headaches and sleep disturbances”; in series [5] (dosage of 2.5 mg a day) it was “didn't produce side effects”; in series [6] (6 patients, 2.5 mg twice a day), “irritability and sleep disturbances”. Besides, in the series with meningiomas (2 practically blind patients), the vision entry is on record as “clear differentiation of the source of light”. In addition, the higher psychic functions result with minimal hearing loss (56 children 4-6 years) was “improvement of higher psychic functions”. Further, the “most noticeable improvement of phonemic hearing and speech functions observed” value in the series with minimal hearing loss (56 children 4-6 years, 1.25 mg once a day during 20 days) was “between the 3d and the 5th courses”. Besides, the “children who manifested the increase in the intellect” value in the series with minimal hearing loss (starting from the 4th course, preliminary results) came to 85%. For the same molecule, in [6] (setting [11]), the dizziness result was “decrease of dizziness”. For the same molecule, the “hearing in one ear improved by” value in series [6] (after the first course, 2.5 mg twice a day during 25 days) is listed as 5-10 dB.
Turning to `COc1ccc2c3c1O[C@H]1C[C@@H](O)C=C[C@@]31CCN(C)C2` [galanthamine hydrobromide], the auditory function entry in [7] is on record as “minor improvement of auditory function”.
